Reference: ChEMBL document CHEMBL3885861, “Open TG-GATES”

Species: Rattus norvegicus
Experiment: Open TG-GATES - Regimen: Daily Repeat
Type: toxicity, organism-based, Sprague-Dawley
Parameters: regimen Daily Repeat, gender Male, age 6 weeks
Settings: in vivo, po, 100 mg/kg, route gavage, dose level High; for APTT / Bas / Eos / Fbg / Hb / Ht / Lym / MCH / MCHC / MCV / Mono / Neu / Plat / RBC / Ret / WBC: tissue Blood; for KIDNEY_L / KIDNEY_R / KIDNEY_TOTAL: tissue Kidney; for ALP / ALT / AST / BUN / CRE / DBIL / GLC / IP / K / LDH / Na / PL / RALB / TBIL / TC / TG / TP / gamma-GTP: tissue Plasma

SMILES: CN(C)CCC=C1c2ccccc2COc2ccccc21 [DOXEPIN]
- TERMINAL_BW (72 h, time 3 day): 208.5 g
- APTT (72 h, time 3 day): 18.1 s
- Bas (72 h, time 3 day): 0%
- Eos (72 h, time 3 day): 1.2%
- Fbg (72 h, time 3 day): 285 mg/dL
- Hb (72 h, time 3 day): 13.6 g/dL
- Ht (72 h, time 3 day): 39.2%
- Lym (72 h, time 3 day): 78%
- MCH (72 h, time 3 day): 21.3 pg
- MCHC (72 h, time 3 day): 34.7%
- MCV (72 h, time 3 day): 61.5 fL
- Mono (72 h, time 3 day): 3.2%
- Neu (72 h, time 3 day): 17.2%
- Plat (72 h, time 3 day): 113.2 x10_4/uL
- RBC (72 h, time 3 day): 637.4 x10_4/ul
- Ret (72 h, time 3 day): 6.3%
- WBC (72 h, time 3 day): 77.5 x10_2/uL
- KIDNEY_L (72 h, time 3 day): 0.9 g
- KIDNEY_R (72 h, time 3 day): 0.9 g
- KIDNEY_TOTAL (72 h, time 3 day): 1.8 g
- ALP (72 h, time 3 day): 1907.8 IU/L
- ALT (72 h, time 3 day): 51 IU/L
- AST (72 h, time 3 day): 75.4 IU/L
- BUN (72 h, time 3 day): 16.6 mg/dL
- CRE (72 h, time 3 day): 0.2 mg/dL
- DBIL (72 h, time 3 day): 0.014 mg/dL
- GLC (72 h, time 3 day): 196.2 mg/dL
- IP (72 h, time 3 day): 8.4 mg/dL
- K (72 h, time 3 day): 4.2 meq/L
- LDH (72 h, time 3 day): 86 IU/L
- Na (72 h, time 3 day): 142.6 meq/L
- PL (72 h, time 3 day): 145.2 mg/dL
- RALB (72 h, time 3 day): 2.7 g/dL
- TBIL (72 h, time 3 day): 0.038 mg/dL
- TC (72 h, time 3 day): 85.4 mg/dL
- TG (72 h, time 3 day): 58.2 mg/dL
- TP (72 h, time 3 day): 5.7 g/dL
- gamma-GTP (72 h, time 3 day): 1.2 IU/L
- TERMINAL_BW ([…], time 7 day): 235 g
- TERMINAL_BW ([…], time 14 day): 276.3 g
- TERMINAL_BW ([…], time 28 day): 344.8 g
- APTT ([…], time 7 day): 16.4 s
- Bas ([…], time 7 day): 0%
- Eos ([…], time 7 day): 1.2%
- Fbg ([…], time 7 day): 311.4 mg/dL
- Hb ([…], time 7 day): 14 g/dL
- Ht ([…], time 7 day): 40.1%
- Lym ([…], time 7 day): 75.6%
- MCH ([…], time 7 day): 21.1 pg
- MCHC ([…], time 7 day): 34.9%
- MCV ([…], time 7 day): 60.4 fL
- Mono ([…], time 7 day): 2.8%
- Neu ([…], time 7 day): 20.2%
- Plat ([…], time 7 day): 106.3 x10_4/uL
- RBC ([…], time 7 day): 665.6 x10_4/ul
- Ret ([…], time 7 day): 5.1%
- WBC ([…], time 7 day): 94.7 x10_2/uL
- APTT ([…], time 14 day): 17.9 s
- Bas ([…], time 14 day): 0%
- Eos ([…], time 14 day): 1%
- Fbg ([…], time 14 day): 284.2 mg/dL
- Hb ([…], time 14 day): 14.7 g/dL
- Ht ([…], time 14 day): 42.7%
- Lym ([…], time 14 day): 77.6%
- MCH ([…], time 14 day): 20.2 pg
- MCHC ([…], time 14 day): 34.6%
- MCV ([…], time 14 day): 58.4 fL
- Mono ([…], time 14 day): 3.2%
- Neu ([…], time 14 day): 17.6%
- Plat ([…], time 14 day): 101.4 x10_4/uL
- RBC ([…], time 14 day): 731 x10_4/ul
- Ret ([…], time 14 day): 3.8%
- WBC ([…], time 14 day): 106 x10_2/uL
- APTT ([…], time 28 day): 20.2 s
- Bas ([…], time 28 day): 0%
- Eos ([…], time 28 day): 1.2%
- Fbg ([…], time 28 day): 290.6 mg/dL
- Hb ([…], time 28 day): 16.2 g/dL
- Ht ([…], time 28 day): 45.8%
- Lym ([…], time 28 day): 78.8%
- MCH ([…], time 28 day): 19.9 pg
- MCHC ([…], time 28 day): 35.4%
- MCV ([…], time 28 day): 56.2 fL
- Mono ([…], time 28 day): 1.8%
- Neu ([…], time 28 day): 17.8%
- Plat ([…], time 28 day): 100.9 x10_4/uL
- RBC ([…], time 28 day): 815.6 x10_4/ul
- Ret ([…], time 28 day): 2.3%
- WBC ([…], time 28 day): 90.5 x10_2/uL
- KIDNEY_L ([…], time 7 day): 1 g
- KIDNEY_R ([…], time 7 day): 1 g
- KIDNEY_TOTAL ([…], time 7 day): 2 g
- KIDNEY_L ([…], time 14 day): 1.1 g
- KIDNEY_R ([…], time 14 day): 1.1 g
- KIDNEY_TOTAL ([…], time 14 day): 2.2 g
- KIDNEY_L ([…], time 28 day): 1.3 g
- KIDNEY_R ([…], time 28 day): 1.3 g
- KIDNEY_TOTAL ([…], time 28 day): 2.6 g
- ALP ([…], time 7 day): 1566.6 IU/L
- ALT ([…], time 7 day): 44.8 IU/L
- AST ([…], time 7 day): 72.4 IU/L
- BUN ([…], time 7 day): 17.4 mg/dL
- CRE ([…], time 7 day): 0.2 mg/dL
- DBIL ([…], time 7 day): 0.018 mg/dL
- GLC ([…], time 7 day): 193 mg/dL
- IP ([…], time 7 day): 7.9 mg/dL
- K ([…], time 7 day): 4.1 meq/L
- LDH ([…], time 7 day): 88.8 IU/L
- Na ([…], time 7 day): 142 meq/L
- PL ([…], time 7 day): 145 mg/dL
- RALB ([…], time 7 day): 2.8 g/dL
- TBIL ([…], time 7 day): 0.036 mg/dL
- TC ([…], time 7 day): 77 mg/dL
- TG ([…], time 7 day): 116.8 mg/dL
- TP ([…], time 7 day): 6 g/dL
- gamma-GTP ([…], time 7 day): 1.8 IU/L
- ALP ([…], time 14 day): 1470 IU/L
- ALT ([…], time 14 day): 46.2 IU/L
- AST ([…], time 14 day): 71.4 IU/L
- BUN ([…], time 14 day): 17.8 mg/dL
- CRE ([…], time 14 day): 0.2 mg/dL
- DBIL ([…], time 14 day): 0.012 mg/dL
- GLC ([…], time 14 day): 179.8 mg/dL
- IP ([…], time 14 day): 8.1 mg/dL
- K ([…], time 14 day): 4.3 meq/L
- LDH ([…], time 14 day): 53.8 IU/L
- Na ([…], time 14 day): 142.8 meq/L
- PL ([…], time 14 day): 141.6 mg/dL
- RALB ([…], time 14 day): 2.7 g/dL
- TBIL ([…], time 14 day): 0.022 mg/dL
- TC ([…], time 14 day): 76 mg/dL
- TG ([…], time 14 day): 106.6 mg/dL
- TP ([…], time 14 day): 6 g/dL
- gamma-GTP ([…], time 14 day): 1.2 IU/L
- ALP ([…], time 28 day): 1314.6 IU/L
- ALT ([…], time 28 day): 46.8 IU/L
- AST ([…], time 28 day): 68.6 IU/L
- BUN ([…], time 28 day): 17.2 mg/dL
- CRE ([…], time 28 day): 0.2 mg/dL
- DBIL ([…], time 28 day): 0.018 mg/dL
- GLC ([…], time 28 day): 181 mg/dL
- IP ([…], time 28 day): 6.6 mg/dL
- K ([…], time 28 day): 4.1 meq/L
- LDH ([…], time 28 day): 83.4 IU/L
- Na ([…], time 28 day): 144.2 meq/L
- PL ([…], time 28 day): 139.6 mg/dL
- RALB ([…], time 28 day): 3 g/dL
- TBIL ([…], time 28 day): 0.028 mg/dL
- TC ([…], time 28 day): 79.2 mg/dL
- TG ([…], time 28 day): 74.6 mg/dL
- TP ([…], time 28 day): 6.4 g/dL
- gamma-GTP ([…], time 28 day): 1 IU/L
